Experiments:
[1] = system: herpes simplex virus (HSV-1) KOS321 strain; assay: Antiviral assay, HSV-1 cell-to-cell spread (plaque area); assay type: cell-based; conditions: African green monkey kidney cells; compound in overlay medium after infection, 3 days
From the text: In panel A, the results are expressed as a percentage of the number of viral plaque forming units (PFU) formed in cells infected with the compound-treated virions relative to mock-treated controls. In panel B, the results are expressed as a percentage of the average area of 20 viral plaques formed in the continuous presence of compound relative to mock-treated control cells. Monolayer cultures of African green monkey kidney cells[35] and herpes simplex virus (HSV-1) KOS321 strain[36] were used throughout. The antiviral assays on the compounds were performed as described by Nyberg et al.[13] Briefly, the effects of the compounds on the infection of cells by exogenously added virus were tested by mixing serial fivefold dilutions of compound (at 0.032-20 μM) with approximately 200 plaque forming units of the virus. Following incubation of the virus and compound for 10 min at room temperature, the mixture was added to the cells and left on the cell monolayer for 2 h at 37° C. Subsequently, the inoculum was aspirated and replaced with an overlay medium of 1% methylcellulose solution in Eagle's minimum essential medium (EMEM). The viral plaques that developed after incubation of cells for 3 days at 37° C. were stained with 1% crystal violet solution and counted. The effects of the compounds on cell-to-cell spread of HSV-1 were tested by adding serial fivefold dilutions of compound (at 0.032-20 μM) in the serum-free overlay medium to cells after their infection with HSV-1. After incubation of the compound with the cells for 3 days at 37° C., the images of 20 plaques were captured and subjected to area determination using IM500 software (Leica).

heparanase = molecular target: T1, heparanase (Homo sapiens, UniProt Q9Y251); assay: Heparanase inhibition, Microcon ultrafiltration assay; assay type: biochemical; conditions: 3H labelled HS, pH 5.0, 22° C., 2.5 h
T1 sequence (Q9Y251 158-543 limits assumed): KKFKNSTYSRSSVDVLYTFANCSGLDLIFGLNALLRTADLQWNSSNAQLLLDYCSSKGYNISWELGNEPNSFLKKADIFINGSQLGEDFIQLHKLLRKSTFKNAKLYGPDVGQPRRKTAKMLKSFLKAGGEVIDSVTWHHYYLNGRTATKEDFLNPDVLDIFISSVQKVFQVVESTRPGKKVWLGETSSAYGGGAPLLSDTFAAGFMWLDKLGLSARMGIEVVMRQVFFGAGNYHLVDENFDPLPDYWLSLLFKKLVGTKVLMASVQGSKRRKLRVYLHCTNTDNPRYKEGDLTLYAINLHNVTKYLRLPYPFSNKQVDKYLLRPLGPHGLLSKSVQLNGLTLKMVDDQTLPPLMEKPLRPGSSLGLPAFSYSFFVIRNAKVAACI
T1 sequence (Q9Y251 36-109 limits assumed): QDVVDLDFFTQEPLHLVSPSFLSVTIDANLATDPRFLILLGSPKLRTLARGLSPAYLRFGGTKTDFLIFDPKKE
Protocol: The heparanase assays were performed using a Microcon ultrafiltration assay. The assays rely on the principle of physically separating heparan sulfate (HS) that has been digested by heparanase from native HS to determine heparanase activity. The assay uses ultrafiltration devices (Microcon YM-10) to separate the smaller heparanase-cleaved HS fragments from native HS.
A reaction was set up with a volume of 90 μL, • 40 mM acetate buffer (pH 5.0) • 0.1 mg/mL BSA • 90 ng heparanase • 2.5 μM ^3H labelled HS • various concentrations of inhibitors.
The reactions were set up with all components except the ^3H labelled HS and allowed to equilibrate for 10 min at 22° C. The assays were then initiated by adding the HS and immediately 20 μL was taken, mixed with 80 μL of 10 mM phosphate (pH 7.0) and the 100 μL transferred to a Microcon YM-10 concentrator which was then centrifuged at approximately 14000 g for 5 min. The solution that passed through the membrane (filtrate) was retained. This sample was considered the time=0 sample. The assays (now 70 μL in volume) were allowed to react at 22° C. for 2.5 h and then the filtration step was repeated for three aliquots of 20 μL from each assay.
The time=0 filtrate and the three 2.5 h filtrate samples were counted for ^3H. The difference between the time=0 and the averaged 2.5 h samples gave the amount of heparanase activity. All inhibition assays were run with a heparanase standard assay which was identical to the assay composition above except no inhibitor was present and the amount of heparanase inhibition in the other assays determined by comparison with this standard.

Benzyl Glycoside Polysulfate [PG500]
IC50 [1]: 1 µM
IC50 (heparanase): 1.83 ± 0.483 µM

Octyl Glycoside Polysulfate [PG501]
IC50 [1]: 0.4 µM
IC50 (heparanase): 1.64 ± 0.406 µM

Source: patent US8173606B2, “Sulfated oligosaccharide derivatives” (Progen Pharmaceuticals Limited, priority 2004, dated 2012)
